Measurements from US5288905A, “Glycyl urea derivatives as anti-convulsants” (G. D. Searle & Co., priority 1991, dated 1994).

Key:
mice [1] = system: mice; parameters: species or system male Swiss albino mice; conditions: mouse, in vivo, po
Experimental: (§1) Treatment of a mammal afflicted by or susceptible to certain CNS disorders is accomplished by administration of a therapeutically-effective amount of a compound of Formula I. In particular, Compounds #1-11 of Table II were evaluated by in vitro and in vivo animal model assays to determine the pharmacological properties of such compounds and their likely suitability for use as therapeutic drugs in humans. These biological assays, as described below, consisted of prevention of induced convulsions in mice, determination of acute toxicity in mice and animal behavior assays. Except as otherwise specified, the animals used in the in vivo tests were male Swiss albino mice weight 22 to 33 g [CDl, Charles River, France], housed in groups of 10 on a 12-hour dark-light cycle for at least one week before use and fasted overnight prior to testing.
Behavioral effects of compounds of the invention on animals were determined by observations taken at 5 to 6 hours and at 24 hours after administration of compounds in the acute toxicity studies. Determinations were made based on a method derived from that of S. Irwin [See R. A. Turner, Screening Methods in Pharmacology, Chapter 3, pages 22-34, Academic Press, N.Y. (1965)]. If an anomaly were noted, the observation was extended and smaller doses were tested. Possible types of behavior to be observed are as follows: analgesia (AAG), convulsions (CON), depression (DEP), exophthalmia (EOP), excitation (EXC), hyperalgesia (HAG), hypothermia (ATH), hypotonia (ATN), piloerection (PIE), palpebral ptosis (PTO), reduction of the pinna reflux (RPI), reduction of the rearing reflex (RRE), reduction of the flexion reflex (RRF), sedation (SED), tremors (TRE), cyanosis (CYA), diarrhea (DIA), increase of the pinna reflex (HPI), increase of the flexion reflex (HRF), dyspnea (DYS), toxic (TOX), zero ("0") means no effect. Behaviors observed are reported in Table V by numbers which represent the dose at which the behavior is observed.

mice [2] = assay: Prevention of 3-mercaptopropionic acid (3-MPA)-induced convulsions in mice; type: in vivo, male Swiss albino mice; conditions: for Number of Mice Protected From Convulsions Induced by 3-MPA at 100 mg/kg, 30 min interval / Number of Mice Protected From Convulsions Induced by 3-MPA at 100 mg/kg, 2 hr interval: 100 mg/kg orally, 3-MPA 120 mg/kg subcutaneously, two groups of five animals; for Number of Mice Protected From Convulsions Induced by 3-MPA at 100 mg/kg, 30 min interval: 30 min before convulsions induced; for Number of Mice Protected From Convulsions Induced by 3-MPA at 100 mg/kg, 2 hr interval: 2 hr before convulsions induced
Experimental: as §1
(§2) Compounds of Formula I were evaluated as inhibitors of convulsions and death induced by different convulsant agents: 3-mercaptopropionic acid (3-MPA; 120 mg/kg subcutaneously), bicuculline (BIC, 0.6 mg/kg intravenously), pentylenetetrazole (PTZ, 55 mg/kg intravenously) and supramaximal electroconvulsive shocks (ECS evoked by a current intensity of 48 mA, 50 Hz. 0.2 sec duration, 10 msec square pulse, corneal electrodes) [W. van Dorsser, D. Barris, A. Cordi and J. Roba, Arch. Int. Pharmacodyn., 266, 239-249 (1983)]. The compounds of the invention were administered orally at a dosage of either 100 mg/kg or 30 mg/kg in a volume of 10 ml/kg each to 5 mice. Tonic convulsions and the number of dead mice were noted. Results are given in Table III as a score which represents the total number of mice protected from convulsions induced by 3-mercaptopropionic acid at dose of 100 mg/kg for two groups of five animals, or the percentage of mice protected from convulsions induced by bicuculline at a dose of 30 mg/kg for four groups of five animals.
(§3) Based upon data generated from the previously-described anti-convulsant experiments, ED50 values were calculated at which Compound #6 inhibits convulsions induced by the convulsant agents listed in Table IV.

[3] = Acute toxicity in mice after oral administration; parameters: species or system male Swiss albino mice; conditions: mouse, in vivo, mortality over 15 days
Experimental: as §1
The acute toxicity of compounds of the invention was determined after oral administration of the test compound to mice. Compound to be tested was suspended in a 1% tragacanth gum mucilage, and was administered by means of an intragastric probe to a group of three male mice. Doses used in the test were determined by observing toxic effects on the mice, which doses varied from 3,000 mg/kg down to about 3 mg/kg. The mortality was recorded over a period of 15 days. The LD50 results reported in Table V were calculated according to published methods [Lichtfield and Wilcoxon, J. Pharmacol. Exp. Ther., 96, 99 (1949)] and expressed in mg of test compound per kilogram of mouse body weight.

mice [4] = assay: Prevention of bicuculline (BIC)-induced convulsions in mice; type: in vivo, male Swiss albino mice; conditions: Mus musculus, po; 30 mg/kg orally; bicuculline 0.6 mg/kg intravenously; four groups of five animals; read-out: Percentage of Mice Protected from Bicuculline
Experimental: as §1, §2

mice [5] = assay: 5HTP-induced head twitch in mice; type: in vivo, male Swiss albino mice; conditions: Mus musculus, po, 2 hours before 5HTP challenge (10 mg/kg i.p.) after nialamide 50 mg/kg i.p.; read-out: ED50 (inhibition of 5HTP-induced head twitches)
Experimental: as §1
Compound #6 was evaluated for inhibition of head twitches produced in mice by administration of L-5-hydroxytryptophan (5HTP, 10 mg/kg intraperitoneously) after nialamide treatment (50 mg/kg intraperitoneal, 22 hours before the test). The head twitches were counted for 45 min. starting 15 min. after 5HTP administration. [E. Friedmann et al.; Europ. J. Pharmocol., 89, 69-76 (1983)].

mice [6] = assay: Inhibition of pentylenetetrazole (PTZ)-induced convulsions in mice; type: in vivo, male Swiss albino mice; conditions: Mus musculus, po; convulsant PTZ 55 mg/kg intravenously; compound orally; read-out: Inhibition of Convulsions by Cpd. #6 (ED50), PZT
Experimental: as §1, with “Except as otherwise specified, the animals used in the in vivo tests were male Swiss albino mice weight 22 to 33 g [CDl, Charles River, France], housed in groups of 10 on a 12-hour dark-light cycle for at least one week before use and fasted overnight prior to testing.” left out
(§4) Compounds of Formula I were evaluated as inhibitors of convulsions and death induced by different convulsant agents: 3-mercaptopropionic acid (3-MPA; 120 mg/kg subcutaneously), bicuculline (BIC, 0.6 mg/kg intravenously), pentylenetetrazole (PTZ, 55 mg/kg intravenously) and supramaximal electroconvulsive shocks (ECS evoked by a current intensity of 48 mA, 50 Hz. 0.2 sec duration, 10 msec square pulse, corneal electrodes) [W. van Dorsser, D. Barris, A. Cordi and J. Roba, Arch. […]
as §3

rat frontal cortex = assay: Chronic focal epilepsy assay (cobalt powder on rat frontal cortex, EEG spike activity); type: in vivo; conditions: ip, intraperitoneal, cobalt-induced spikes, read-out: threshold dose for inhibiting spike activities
Experimental: In a model of chronic focal epilepsy where cobalt powder is placed on rat frontal cortex, the animals develop, after several days, chronic expression of afterdischarge-like spike activity which can be recorded by EEG. Compound #6 has, when administered by intraperitoneal route, a threshold dose of 200 mg/kg for inhibiting these spike activities with the effect being observed from 30 to 90 minutes.

mice [7] = assay: Inhibition of convulsions induced by supramaximal electroconvulsive shocks (ECS) in mice; type: in vivo, male Swiss albino mice; conditions: Mus musculus, po; ECS 48 mA, 50 Hz, 0.2 sec, corneal electrodes; compound orally; read-out: Inhibition of Convulsions by Cpd. #6 (ED50), ECS
Experimental: as §1, with “Except as otherwise specified, the animals used in the in vivo tests were male Swiss albino mice weight 22 to 33 g [CDl, Charles River, France], housed in groups of 10 on a 12-hour dark-light cycle for at least one week before use and fasted overnight prior to testing.” left out
as §4, §3

SMILES	Behavior (dose at which the behavior is observed : behavior) (mice [1])	Number of Mice Protected From Convulsions Induced by 3-MPA at 100 mg/kg, 30 min interval (mice [2])	LD50 at 360 h [3]	responders at 30 mg/kg (mice [4])	Number of Mice Protected From Convulsions Induced by 3-MPA at 100 mg/kg, 2 hr interval (mice [2])	ED50 (mice [5])	ED50 (mice [6])	minimal effective dose (rat frontal cortex)	ED50 (mice [2]; Mus musculus, po, convulsant 3-MPA 120 mg/kg subcutaneously, compound orally, read-out: Inhibition of Convulsions by Cpd. #6 (ED50), 3-MPA)	ED50 (mice [7])
CCCCCCCCNC(=O)NC(=O)CNCCCCC [Compound 1, 1-octyl-3-(2-pentylamino-1-oxoethyl)urea]	1000:0 mg/kg	0 mice	> 1000 mg/kg	35%	–	–	–	–	–	–
CCCCCNCC(=O)NC(=O)NCCc1ccccc1 [Compound 2, 1-(2-phenylethyl)-3-(2-pentylamino-1-oxoethyl)urea]	1000:SED, RPI, RRE	3 mice	> 1000 mg/kg	25%	–	–	–	–	–	–
CCCCCCCCNC(=O)NC(=O)CNCCc1ccccc1 [Compound 3, 1-octyl-3-[2-(2-phenylethyl)amino-1-oxoethyl]urea]	3000:SED, ATN	6 mice	> 3000 mg/kg	55%	3 mice	–	–	–	–	–
CCCCCCCCNCC(=O)NC(=O)NCCCCCCCC [Compound 4, 1-octyl-3-(2-octylamino-1-oxoethyl)urea]	3000:0 mg/kg	4 mice	> 3000 mg/kg	35%	3 mice	–	–	–	–	–
O=C(CNCCc1ccccc1)NC(=O)NCCc1ccccc1 [Compound 5, 1-(2-phenylethyl)-3-[2-(2-phenylethyl)amino-1-oxoethyl]urea]	3000:TOX, DEP	6 mice	1750 mg/kg	45%	1 mice	–	–	–	–	–
CCCCCCCCNCC(=O)NC(=O)NCCc1ccccc1 [Compound 6, 1-(2-phenylethyl)-3-(2-octylamino-1-oxoethyl)urea]	1000:SED, ATN	9 mice	> 3000 mg/kg	35%	9 mice	200 mg/kg	56 mg/kg	200 mg/kg	16 mg/kg	60 mg/kg
CCCCCNC(=O)NC(=O)CNCCc1ccccc1 [Compound 7, 1-pentyl-3-[2-(2-phenylethyl)amino-1-oxoethyl]urea]	1000:SED	1 mice	> 3000 mg/kg	25%	–	–	–	–	–	–
CCCCCNCC(=O)NC(=O)NCCCCC [Compound 8, 1-pentyl-3-(2-pentylamino-1-oxoethyl)urea]	–	0 mice	> 3000 mg/kg	40%	–	–	–	–	–	–
CCCCCCCCNCC(=O)NC(=O)NCCCCC [Compound 9, 1-pentyl-3-(2-octylamino-1-oxoethyl)urea]	1000:0 mg/kg	7 mice	> 1000 mg/kg	35%	4 mice	–	–	–	–	–
CNC(=O)NC(=O)CNC(c1ccccc1)c1ccccc1 [Compound 10, 1-methyl-3-(2-diphenylmethylamino-1-oxoethyl)urea]	–	1 mice	–	–	–	–	–	–	–	–
O=C(CNC(c1ccccc1)c1ccccc1)NC(=O)NCCc1ccccc1 [Compound 11, 1-(2-phenylethyl)-3-(2-diphenylmethylamino-1-oxoethyl)urea]	–	0 mice	–	–	–	–	–	–	–	–
